From patent US10130615B2, “Benzomorphan analogs and the use thereof” (priority 2014, dated 2018)

Legend:
[1] = molecular target: T1, κ-opioid receptor (Homo sapiens, UniProt P41145); test: κ-opioid receptor GTPγS functional assay, U2OS cells; format: biochemical; set-up: expressed in transfected cells; host or cells: U-2 OS; settings: U2OS cells; for EC50: read-out: GTPγS κ EC50
Description: (§1) Plates were incubated for 30 min at a temperature of about 25° C. with shaking.

[2] = molecular target: T2, μ-opioid receptor (Homo sapiens, UniProt P35372); test: μ-opioid receptor GTPγS functional assay, U2OS cells; settings: for Emax: read-out: GTPγS μ Emax
T2 sequence (P35372 whole entry, species assumed): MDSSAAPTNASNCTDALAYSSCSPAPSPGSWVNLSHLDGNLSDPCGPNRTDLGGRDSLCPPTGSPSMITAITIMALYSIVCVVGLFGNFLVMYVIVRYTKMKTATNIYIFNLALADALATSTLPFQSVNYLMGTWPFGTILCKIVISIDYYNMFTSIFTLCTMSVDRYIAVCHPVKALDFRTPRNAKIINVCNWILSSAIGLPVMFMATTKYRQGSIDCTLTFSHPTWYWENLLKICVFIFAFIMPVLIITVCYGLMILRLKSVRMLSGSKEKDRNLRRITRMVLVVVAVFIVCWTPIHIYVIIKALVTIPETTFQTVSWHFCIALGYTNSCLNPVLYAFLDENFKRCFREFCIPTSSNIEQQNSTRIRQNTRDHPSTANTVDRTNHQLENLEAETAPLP

[3] = molecular target: T1, κ-opioid receptor; test: κ-opioid receptor β-Arr2 activity response, U2OS cells; format: cell-based; set-up: expressed in transfected cells; host or cells: U-2 OS; settings: U2OS cells; for EC50: read-out: β-Arr2 κ EC50
[4] = molecular target: T2, μ-opioid receptor; test: μ-opioid receptor radioligand binding assay ([3H]-diprenorphine); set-up: purchased Perkin Elmer, Shelton, Conn; host or cells: HEK-293 or CHO; settings: HEK-293 or CHO cells; read-out: Ki (nM) Opioid Receptor μ
Description: μ-opioid Receptor Binding Assay Procedures: Radioligand dose-displacement binding assays for μ-opioid receptors used 0.3 nM [^3H]-diprenorphine (Perkin Elmer, Shelton, Conn.), with […] membrane protein/well in a final volume of 500 μl binding buffer (10 mM MgCl2, 1 mM EDTA, 5% DMSO, 50 mM HEPES, pH 7.4). Reactions were carried out in the absence or presence of increasing concentrations of unlabeled naloxone. All reactions were conducted in 96-deep well polypropylene plates for 2 hr at room temperature. […] The data were analyzed using the one-site competition curve fitting functions in GraphPad PRISM™ v. 3.0 or higher (San Diego, Calif.), or an in-house function for one-site competition curve-fitting.

[5] = molecular target: T1, κ-opioid receptor; test: κ-opioid receptor radioligand binding assay ([3H]-U69,593); set-up: expressed in transfected cells; host or cells: HEK-293; settings: HEK-293 or CHO cells; read-out: Ki (nM) Opioid Receptor κ
Description: κ-opioid Receptor Binding Assay Procedures: Membranes from recombinant HEK-293 cells expressing the human κ opioid receptor (κ) (cloned in house) were prepared by lysing cells in ice cold hypotonic buffer (2.5 mM MgCl2, 50 mM HEPES, pH 7.4) (10 mL/10 cm dish) followed by homogenization with a tissue grinder/Teflon pestle. Membranes were collected by centrifugation at 30,000×g for 15 min at 4° C. and pellets were resuspended in hypotonic buffer to a final concentration of 1-3 mg/mL. Protein concentrations were determined using the BioRad protein assay reagent with bovine serum albumen as standard. Aliquots of κ receptor membranes were stored at −80° C.
Radioligand dose displacement assays used 0.4 nM [^3H]-U69,593 (GE Healthcare, Piscataway, N.J.; 40 Ci/mmole) with 15 μg membrane protein (recombinant κ opioid receptor expressed in HEK 293 cells; in-house prep) in a final volume of 200 μl binding buffer (5% DMSO, 50 mM Trizma base, pH 7.4). Non-specific binding was determined in the presence of 10 μM unlabeled naloxone or U69,593. All reactions were performed in 96-well polypropylene plates for 1 hr at a temperature of about 25° C.

[6] = molecular target: T2, μ-opioid receptor; test: biochemical; set-up: purchased Perkin Elmer, Shelton, Conn; host or cells: HEK-293 or CHO; settings: HEK-293 or CHO cells; for Emax: relative to DAMGO, read-out: GTPγS μ Emax; for EC50: read-out: GTPγS μ EC50
[7] = molecular target: T2, μ-opioid receptor; test: cell-based; set-up: purchased Perkin Elmer, Shelton, Conn; settings: U2OS cells; for Emax: read-out: β-Arr2 μ Emax
[8] = molecular target: T1, κ-opioid receptor; test: κ-opioid receptor [35S]GTPγS functional assay, HEK-293 or CHO cells; format: biochemical; set-up: expressed in transfected cells; host or cells: HEK-293; settings: HEK-293 or CHO cells; for EC50: read-out: GTPγS κ EC50; for Emax: relative to U69,593
Description: as §1

T1 sequence (P41145 whole entry): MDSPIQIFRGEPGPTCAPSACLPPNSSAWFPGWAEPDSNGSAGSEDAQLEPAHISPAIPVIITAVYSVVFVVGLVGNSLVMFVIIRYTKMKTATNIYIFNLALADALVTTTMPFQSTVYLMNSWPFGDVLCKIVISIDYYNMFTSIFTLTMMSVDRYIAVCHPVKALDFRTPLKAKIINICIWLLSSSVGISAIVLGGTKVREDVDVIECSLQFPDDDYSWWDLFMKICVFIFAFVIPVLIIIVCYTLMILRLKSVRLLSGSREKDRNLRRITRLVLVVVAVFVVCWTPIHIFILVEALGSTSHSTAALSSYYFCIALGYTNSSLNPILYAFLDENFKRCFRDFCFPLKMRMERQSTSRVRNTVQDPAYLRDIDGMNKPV

SMILES | Emax [1] | EC50 [1] | EC50 [2] | Emax [2] | Emax [3] | EC50 [3] | Ki [4] | Ki [5] | Emax [6] | Emax [7] | EC50 [8] | Emax [8] | EC50 [6] | EC50 ([7]; read-out: β-Arr2 μ EC50)
C[C@H]1[C@H]2Cc3ccc(O)cc3[C@]1(CCCCN[C@@H](Cc1ccccc1)C(N)=O)CCN2CC1CC1 [Compound 23, (S)-2-((4-((2R,6R,11R)-3-(cyclopropyl-methyl)-8-hydroxy-11-methyl-2,3,4,5-tetrahydro-2,6-methanobenzo[d]azocin-6(1H)-yl)butyl)amino)-3-phenyl-propanamide] | 104 ± 4.06% | 0.079 ± 0.01 nM | 0.28 ± 0.073 nM | 56 ± 3.06% | 30 ± 0.58% | 0.16 ± 0.055 nM | 0.2 ± 0.012 nM | 0.048 ± 0.01 nM | 1% | -1.5% | 1.49 ± 0.58 nM | 99 ± 6.35% |  | 
CC(C)C[C@H](NCCCC[C@]12CCN(CC3CC3)[C@H](Cc3ccc(O)cc31)[C@@H]2C)C(=O)O [Compound 24, (4-((2R,6R,11R)-3-(cyclopropyl-methyl)-8-hydroxy-11-methyl-2,3,4,5-tetrahydro-2,6-methanobenzo[d]azocin-6(1H)-yl)butyl)-L-leucine] | 98.3 ± 4.33% | 0.51 ± 0.072 nM | 1.94 ± 0.28 nM | 77.3 ± 3.18% | 54 ± 4.06% | 3.56 ± 0.91 nM | 2.89 ± 0.63 nM | 0.55 ± 0.11 nM | 19.5 ± 2.26% | -0.4 ± 0.6% | 9.32 ± 2.97 nM | 102 ± 5.57% | 5.46 ± 0.51 nM | 
C[C@H]1[C@H]2Cc3ccc(O)cc3[C@]1(CCCCN[C@@H](CCCCN)C(=O)O)CCN2CC1CC1 [Compound 25, (4-((2R,6R,11R)-3-(cyclopropyl-methyl)-8-hydroxy-11-methyl-2,3,4,5-tetrahydro-2,6-methanobenzo[d]azocin-6(1H)-yl)butyl)-L-lysine] | 99 ± 4.58% | 0.17 ± 0.038 nM | 1.29 ± 0.11 nM | 48.3 ± 0.67% | 50 ± 0.58% | 0.1 ± 0.019 nM | 3.58 ± 1.45 nM | 0.077 ± 0.014 nM | 1% | -1.4% | 2.33 ± 0.51 nM | 104 ± 5.03% |  | 
COC(=O)[C@H](CCCCN)NCCCC[C@]12CCN(CC3CC3)[C@H](Cc3ccc(O)cc31)[C@@H]2C [Compound 26, methyl (4-((2R,6R,11R)-3-(cyclopropyl-methyl)-8-hydroxy-11-methyl-2,3,4,5-tetrahydro-2,6-methanobenzo[d]azocin-6(1H)-yl)butyl)-L-lysinate] | 102 ± 3.48% | 0.14 nM | 0.51 ± 0.054 nM | 40 ± 1.73% | 17.5 ± 2.72% | 0.081 ± 0.019 nM | 0.73 ± 0.1 nM | 0.053 nM | 0.33 ± 0.67% | 0% | 0.19 ± 0.058 nM | 51 ± 2.04% |  | 
COC(=O)[C@H](Cc1ccccc1)NCCCC[C@]12CCN(CC3CC3)[C@H](Cc3ccc(O)cc31)[C@@H]2C [Compound 27] | 106 ± 7.13% | 0.15 ± 0.023 nM | 0.27 ± 0.058 nM | 22.3 ± 2.85% | 12.7 ± 1.86% | 0.27 ± 0.11 nM | 0.071 ± 0.021 nM | 0.054 ± 0.01 nM | 1% | 1% | 0.6 ± 0.12 nM | 61.7 ± 4.33% |  | 
C[C@H]1[C@H]2Cc3ccc(O)cc3[C@]1(CCCC(=O)N(C)C)CCN2CC1CCC1 [Compound 28, 4-((2R,6R,11R)-3-(cyclobutylmethyl)-8-hydroxy-11-methyl-2,3,4,5-tetrahydro-2,6-methanobenzo[d]azocin-6(1H)-yl)-N,N-dimethylbutanamide] | 104 ± 2.85% | 0.49 ± 0.016 nM | 2.71 ± 0.67 nM | 57.3 ± 6.57% | 45 ± 2.08% | 2.37 ± 0.62 nM | 1.45 ± 0.013 nM | 0.22 ± 0.056 nM | 1% | 3.7 ± 0.49% | 4.58 ± 0.38 nM | 95.3 ± 1.45% |  | 30.5 ± 4.44 nM
COc1ccc2c(c1)[C@]1(CCNC(=O)CN)CCN(CC3CC3)[C@H](C2)[C@@H]1C [Compound 33, 2-amino-N-(2-((2R,6R,11R)-3-(cyclopropylmethyl)-8-methoxy-11-methyl-2,3,4,5-tetrahydro-2,6-methanobenzo[d]azocin-6(1H)-yl)ethyl)acetamide] | 108 ± 3.38% | 4.93 ± 1.06 nM | 1170 ± 247 nM | 56 ± 3.06% | 42 ± 4% | 12.8 ± 4.1 nM | 936 ± 189 nM | 1.04 ± 0.071 nM | 92.7 ± 6.57% |  | 61.2 ± 20.1 nM | 113 ± 1% | 356 ± 111 nM | 
COc1ccc2c(c1)[C@]1(CCNC3(C(=O)O)CC3)CCN(CC3CC3)[C@H](C2)[C@@H]1C [Compound 34, 1-((2-((2R,6R,11R)-3-(cyclopropyl-methyl)-8-methoxy-11-methyl-2,3,4,5-tetrahydro-2,6-methanobenzo[d]azocin-6(1H)-yl)ethyl)amino)cyclopropane-1-carboxylic acid] |  |  |  |  |  |  | 1470 ± 177 nM | 286 ± 2.93 nM | 70.3 ± 3.71% |  | 7900 ± 2010 nM | 81.3 ± 10.2% | 2880 ± 310 nM | 
COc1ccc2c(c1)[C@]1(CCNCC(=O)O)CCN(CC3CC3)[C@H](C2)[C@@H]1C [Compound 36, (2-((2R,6R,11R)-3-(cyclopropyl-methyl)-8-methoxy-11-methyl-2,3,4,5-tetrahydro-2,6-methanobenzo[d]azocin-6(1H)-yl)ethyl)glycine] |  |  |  |  |  |  | 1020 ± 51.3 nM | 133 ± 22.9 nM | 39 ± 1.53% |  | 1980 ± 216 nM | 69 ± 6.24% | 798 ± 24.1 nM | 
COC(=O)[C@@H](NCC[C@@]12CCN(CC3CC3)[C@@H](Cc3ccc(OC)cc31)[C@H]2C)C(C)C [Compound 37, methyl (2-((2S,6S,11S)-3-(cyclopropyl-methyl)-8-methoxy-11-methyl-2,3,4,5-tetrahydro-2,6-methanobenzo[d]azocin-6(1H)-yl)ethyl)-L-valinate] |  |  |  |  |  |  | 13900 nM | 8990 ± 2060 nM | 19.3 ± 2.33% |  |  |  | 9390 ± 820 nM | 
COc1ccc2c(c1)[C@]1(CCN[C@@H](C)C(=O)O)CCN(CC3CC3)[C@H](C2)[C@@H]1C [Compound 40, (2-((2R,6R,11R)-3-(cyclopropyl-methyl)-8-methoxy-11-methyl-2,3,4,5-tetrahydro-2,6-methanobenzo[d]azocin-6(1H)-yl)ethyl)-L-ananine] | 115 ± 1.73% | 542 ± 13.1 nM |  |  |  |  | 871 ± 211 nM | 248 ± 95.7 nM | 77.7 ± 6.12% |  | 7890 ± 1340 nM | 86.3 ± 7.54% | 1660 ± 245 nM | 
CC(C)[C@H](NCC[C@@]12CCN(CC3CC3)[C@@H](Cc3ccc(O)cc31)[C@H]2C)C(=O)O [Compound 42, (2-((2S,6S,11S)-3-(cyclopropylmethyl)-8-hydroxy-11-methyl-2,3,4,5-tetrahydro-2,6-methanobenzo[d]azocin-6(1H)-yl)ethyl)-L-valine] |  |  |  |  |  |  | 4610 ± 551 nM | 2620 ± 729 nM | 56 ± 2.52% |  |  |  | 2390 ± 230 nM | 
COc1ccc2c(c1)[C@@]1(CCOCc3ccccc3)CCN(CC3CC3)[C@@H](C2)[C@H]1C [Compound 44, (2S,6R,11S)-6-(2-(benzyloxy)ethyl)-3-(cyclopropylmethyl)-8-methoxy-11-methyl-1,2,3,4,5,6-hexahydro-2,6-methanobenzo[d]azocine] | 79.3 ± 3.38% | 327 ± 50.5 nM |  |  | 102 ± 11.6% | 10300 ± 1050 nM | 1840 ± 222 nM | 118 ± 8.52 nM |  |  | 854 ± 240 nM | 32 ± 0.58% |  | 
